In brackets after ≈: the same amount, converted by molar mass.
Assays:
[1] = system: M. tuberculosis H37Rv; experiment: M. tuberculosis H37Rv growth inhibition; format: cell-based, Mycobacterium tuberculosis; settings: for MIC: Mycobacterium tuberculosis, H37RV, read-out: Mt = M. tuberculosis H37Rv, MIC, estimated visually from 2x serial dilutions
[2] = system: S. cerevisiae; experiment: S. cerevisiae growth inhibition; format: cell-based; settings: Saccharomyces cerevisiae, read-out: Sc = S. cerevisiae, IC50
[3] = system: E. coli; experiment: E. coli growth inhibition; format: cell-based; settings: Escherichia coli, read-out: Ec = E. coli, IC50
[4] = system: M. tuberculosis H37Rv; settings: cited from earlier work
[5] = HepG2 cell growth inhibition; format: cell-based; settings: human, HepG2 cells
[6] = system: B. subtilis; experiment: B. subtilis growth inhibition; format: cell-based; settings: Bacillus subtilis, read-out: Bs = B. subtilis, IC50
[7] = system: Trypanosoma brucei; experiment: T. brucei 427
[8] = HEK293T cell growth inhibition; format: cell-based; settings: human, HEK293T cells
[9] = system: M. smegmatis; experiment: M. smegmatis growth inhibition; format: cell-based, Mycobacterium smegmatis; settings: Mycolicibacterium smegmatis, read-out: Ms = M. smegmatis, IC50
[10] = system: M. tuberculosis Erdman; experiment: M. tuberculosis Erdman growth inhibition; format: cell-based, Mycobacterium tuberculosis; settings: estimated visually from 2x serial dilutions
[11] = system: inner mitochondrial membrane potential, Δψ; experiment: Mitochondrial membrane potential; format: cell-based, Trypanosoma brucei; settings: PCF, oligomycin 2 μg/ml, Figure 4C

For `CC(C)=CCC/C(C)=C/CNCCNC1C2CC3CC(C2)CC1C3` (centres unmarked) [compound 2, SQ109], the MIC [1] was 0.1 to 0.5 µg/mL (≈ 0.303 to 1.51 µM), the “Mt = M. tuberculosis H37Rv, MIC” value ([1]; estimated visually from 2x serial dilutions) was 0.15 µg/mL and the IC50 [2] was 1.1 µg/mL (≈ 3.33 µM). For the same compound, the IC50 [3] was 2.8 µg/mL (≈ 8.47 µM), the “MIC against M. tuberculosis (previous work)” value [4] was 0.15 µg/mL (≈ 0.454 µM) and the CC50 [5] was 1.2 µg/mL (≈ 3.63 µM). For the same compound, the IC50 [6] was 7.6 µg/mL (≈ 23 µM), the IC50 ([7]; Trypanosoma brucei, 72 h, read-out: Tb = Trypanosoma brucei, IC50) was 0.078 ± 0.001 µg/mL (≈ 0.236 µM) and the “SI = CC50(HEK293T)/IC50(Tb)” value ([7]; selectivity index HEK293T vs T. brucei) was 24. The “SI = CC50(HepG2)/IC50(Tb)” value ([7]; selectivity index HepG2 vs T. brucei) was 15, the CC50 [8] was 1.9 µg/mL (≈ 5.75 µM) and the IC50 [9] was 3.1 µg/mL (≈ 9.38 µM). For the same compound, the “MtE = M. tuberculosis Erdman, MIC” value [10] was 0.50 µg/mL and the “MtE = M. tuberculosis Erdman, MIC” value ([10]; listed as SQ109) was 0.1 to 0.5 µg/mL.

In the case of `CC[C@H]1/C=C/C=C/C[C@@H](C)[C@H](O)[C@@](C)(O)C(=O)[C@@H](C)[C@H](O)[C@@H](C)C(=O)[C@@H](C)[C@H](O)[C@@H](C)/C=C/C(=O)O[C@@H]2[C@H](C)[C@H](CC1)O[C@]1(CC[C@H](C)[C@H](C[C@@H](C)O)O1)[C@H]2C` [oligomycin], the “effect on ADP phosphorylation by T. brucei mitochondria (Δψ decrease after ADP)” value [11] is reported as “inhibited”.

`CC[C@@H](CO)NCCN[C@@H](CC)CO` [compound 1, ethambutol] gave an MIC [1] of 2 µg/mL (≈ 9.79 µM) and an IC50 [9] of 1 µg/mL (≈ 4.89 µM).

From paper PMC4527605 (ACS infectious diseases, 2015)
